Where a name gives a salt, the structure may show the parent alone.
Assays:
[1] = test system: oxazolone-induced mouse ear swelling; experiment: Model for inhibition of topical inflammation (oxazolone-induced mouse ear swelling); type: in vivo, BALB/c male mice; conditions: topical to right ear, ear thickness 24 hours after challenge
Procedure: Left ears were untreated. The thickness of both ears of each animal was measured with a Dyer model micrometer gauge 24 hours after oxazolone challenge, and the net increase in thickness of right ears versus left ears was calculated for each animal. Percent inhibition was calculated according to the formula: [(Iv−It)/Iv]×100, where Iv and It respectively refer to the average net increase in right ear thickness (mm) for vehicle and candidate compound treated mice.

[2] = test system: LPS-induced TNF-α release from human peripheral blood mononuclear cells; experiment: Whole cell LPS-stimulated TNF-α release assay; type: cell-based; conditions: Table III; inhibition of LPS-induced TNF-α release from human PBMC by 50%
Procedure: The procedure as described in Welker et al., Int. Arch. Allergy and Immunol. 109:110-115 (1996) can be followed. Briefly, a candidate compound and/or vehicle can be preincubated with human peripheral blood mononuclear leukocytes (PBML, 5×10^5/ml) cells in AIM-V medium pH 7.4 for 2 hours. Lipopolysaccharide (LPS, 25 ng/ml) can be added to stimulate the cells, which can be incubated overnight at 37° C. TNF-α cytokine levels in the conditioned medium can then be quantitated using a sandwich ELISA kit.

SMILES | % Inh. of oxazolone-induced mouse ear swelling ([1]; dose 2 × 0.3 mg) [%] | % Inh. of oxazolone-induced mouse ear swelling ([1]; dose 2 × 1 mg) [%] | % Inh. of oxazolone-induced mouse ear swelling ([1]; dose 2 × 2 mg) [%] | IC50 [2] [µM]
CC(C)c1c(C(=O)Nc2ccccc2)c(-c2ccccc2)c(-c2ccc(F)cc2)n1CC[C@@H](O)C[C@@H](O)CC(=O)O [Atorvastatin sodium] | 9 | 31 | 63 | –
O=C(O)C[C@H](O)C[C@H](O)/C=C/c1c(-c2ccccc2)nn(-c2ccnc(Nc3ccccc3)n2)c1-c1ccccc1 [Example 11a, (3R,5S,E)-7-(3,5-diphenyl-1-(2-(phenylamino)pyrimidin-4-yl)-1H-pyrazol-4-yl)-3,5-dihydroxyhept-6-enoic Acid Calcium Salt] | – | – | – | 31
O=C(O)C[C@H](O)C[C@H](O)/C=C/c1cnn(-c2ccnc(Nc3ccccc3)n2)c1-c1cccc(C(F)(F)F)c1 [Example 11g, (3R,5S,E)-3,5-dihydroxy-7-(1-(2-(phenylamino)pyrimidin-4-yl)-5-(3-(trifluoromethyl)phenyl)-1H-pyrazol-4-yl)hept-6-enoic acid calcium salt] | – | – | – | 52
CC(C)n1c(/C=C/C(O)CC(O)CC(=O)O)c(-c2ccc(F)cc2)c2ccccc21 (stereo not drawn) [Fluvastatin sodium] | 28 | – | – | –
O=C([O-])C[C@H](O)C[C@H](O)/C=C/c1c(C2CC2)nc2ccccc2c1-c1ccc(F)cc1.O=C([O-])C[C@H](O)C[C@H](O)/C=C/c1c(C2CC2)nc2ccccc2c1-c1ccc(F)cc1.[Ca+2] [Pitavastatin calcium] | 9 | – | 60 | –
CC(C)c1nc(N(C)S(C)(=O)=O)nc(-c2ccc(F)cc2)c1/C=C/[C@@H](O)C[C@@H](O)CC(=O)O [Rosuvastatin sodium] | 20 | – | – | –
